molecular target: CC chemokine receptor 2 (CCR2) (Homo sapiens, UniProt P41597)
Sequence (P41597 whole entry): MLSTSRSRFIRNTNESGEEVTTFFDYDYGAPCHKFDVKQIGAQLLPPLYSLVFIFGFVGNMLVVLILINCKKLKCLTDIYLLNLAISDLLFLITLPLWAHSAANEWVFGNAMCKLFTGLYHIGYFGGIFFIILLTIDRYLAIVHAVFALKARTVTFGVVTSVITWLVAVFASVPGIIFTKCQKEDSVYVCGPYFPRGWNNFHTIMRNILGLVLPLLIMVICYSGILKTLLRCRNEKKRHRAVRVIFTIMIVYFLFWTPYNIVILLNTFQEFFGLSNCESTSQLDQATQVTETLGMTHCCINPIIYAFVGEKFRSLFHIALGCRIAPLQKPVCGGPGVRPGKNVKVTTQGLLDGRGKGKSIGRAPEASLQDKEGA

Ki	SMILES
3.26 µM	COc1ccc(S(=O)(=O)Nc2cncc(N3CCOCC3)n2)cc1 [compound 13, LUF8070]
1.32 µM	O=S(=O)(Nc1cncc(N2CCOCC2)n1)c1ccc(Cl)c(Cl)c1 [compound 17, LUF8075]
5.95 µM	O=S(=O)(Nc1cncc(N2CCCCC2)n1)c1ccc(Cl)c(C(F)(F)F)c1 [compound 20, LUF8100]
